Earlier results as cited in US6900203B2, “Optically active fluorinated vasoconstrictors, methods for making them, and anesthetic formulations comprising them” (Polium Technologies, Inc., priority 2002, dated 2005).
Like-named read-outs stand apart in the source and are kept apart here.

Tests used:
β2 = β2 (Homo sapiens, UniProt P07550); conditions: read-out: Receptor affinity β2
β1 = β1 (Homo sapiens, UniProt P08588); conditions: read-out: Receptor affinity β1
α1-receptors = conditions: read-out: Receptor affinity α1
[1] = test system: α2/β adrenergic receptors
[2] = test system: α1/β adrenergic receptors
α-receptors = conditions: order of magnitude

Sequence of β2 (P07550 whole entry): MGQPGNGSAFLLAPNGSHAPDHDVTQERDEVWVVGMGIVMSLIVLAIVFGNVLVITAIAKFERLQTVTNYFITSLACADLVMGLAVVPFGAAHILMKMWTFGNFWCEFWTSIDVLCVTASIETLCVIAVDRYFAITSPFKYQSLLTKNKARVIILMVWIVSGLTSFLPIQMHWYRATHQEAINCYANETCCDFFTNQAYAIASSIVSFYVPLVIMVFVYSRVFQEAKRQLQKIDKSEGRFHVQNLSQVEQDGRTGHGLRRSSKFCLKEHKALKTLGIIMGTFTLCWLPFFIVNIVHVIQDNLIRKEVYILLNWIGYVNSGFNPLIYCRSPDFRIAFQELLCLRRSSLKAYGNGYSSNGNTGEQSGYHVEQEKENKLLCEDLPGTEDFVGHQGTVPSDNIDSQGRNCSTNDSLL
Sequence of β1 (P08588 whole entry): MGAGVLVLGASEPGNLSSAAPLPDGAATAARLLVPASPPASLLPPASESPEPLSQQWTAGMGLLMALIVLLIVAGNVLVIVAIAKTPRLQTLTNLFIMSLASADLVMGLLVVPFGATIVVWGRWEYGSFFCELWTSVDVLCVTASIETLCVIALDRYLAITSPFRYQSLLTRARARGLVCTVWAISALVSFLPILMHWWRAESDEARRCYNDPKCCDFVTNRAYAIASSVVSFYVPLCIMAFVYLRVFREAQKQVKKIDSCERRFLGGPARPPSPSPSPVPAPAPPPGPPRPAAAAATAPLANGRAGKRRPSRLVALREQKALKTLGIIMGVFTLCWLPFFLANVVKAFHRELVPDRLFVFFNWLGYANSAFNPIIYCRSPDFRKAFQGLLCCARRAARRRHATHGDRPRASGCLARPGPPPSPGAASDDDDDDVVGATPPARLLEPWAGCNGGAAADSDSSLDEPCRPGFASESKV

| binding constants with α-receptors (α-receptors) | Ki (α2-receptors; order of magnitude, read-out: binding constant with respect to α2-receptors) [µM] | SMILES | Ki (β2) [µM] | Ki (β1) [µM] | Ki (α1-receptors) [µM] | Ki (α2-receptors; read-out: Receptor affinity α2) [µM] | α2/β selectivity [1] [fold] | α1/β selectivity [2] |
| --- | --- | --- | --- | --- | --- | --- | --- | --- |
| – | – | CNC[C@@H](O)c1ccc(O)c(O)c1F [(S)-2F-epinephrine] | ~25 | ~150 | ~40 | 0.053 ± 0.001 | – | – |
| – | – | CNC[C@@H](O)c1ccc(O)c(O)c1 [(S)-epinephrine] | – | – | ~20 | 0.045 ± 0.003 | – | – |
| – | – | CNCC(O)c1cc(O)ccc1F (stereo not shown) [6F-phenylephrine] | – | – | – | – | 780 | 86-140 fold |
| on the order of several | – | CNC[C@H](O)c1cccc(O)c1 [(R)-phenylephrine, 2-methylamino-1R-(3-hydroxyphenyl)ethanol] | – | – | – | – | 33 | 2-5 fold |
| – | – | CNC[C@H](O)c1cc(O)c(O)cc1F [(R)-6F-epinephrine, 2-methylamino-1R-[(3,4-dihydroxy-6-fluoro)-phenyl]ethanol] | 38 ± 7 | ~100 | 2.5 ± 0.1 | 0.013 ± 0.002 | – | – |
| – | ~0.01 | CNC[C@H](O)c1ccc(O)c(O)c1 [(R)-epinephrine] | – | – | – | 0.013 ± 0.002 | – | – |
| – | – | CNC[C@H](O)c1ccc(O)c(O)c1F [(R)-2F-epinephrine] | 0.11 ± 0.03 | 0.56 ± 0.03 | ~25 | 0.067 ± 0.003 | – | – |
| – | – | CNC[C@@H](O)c1cc(O)c(O)cc1F [(S)-6F-epinephrine] | ~90 | ~400 | ~70 | 0.078 ± 0.001 | – | – |
